Measured values reported in patent publication US5198424A, “Functionally active selectin-derived peptides” (Board of Regents of the University of Oklahoma, priority 1992, dated 1993).
Where two headings read alike, the source gives them in different places. Blank lines part the entries; values can stand above or below the substance they belong to. Ends that are not written are not given here.

Assays:
GMP-140 [1] = target: T1, GMP-140 (Homo sapiens, UniProt P16109); experiment: Neutrophil adhesion to purified GMP-140 immobilized on plastic wells (myeloperoxidase readout); format: cell-based; set-up: from tissue; host or cells: outdated human platelet packs (platelet lysate); settings: for % Bound (neutrophils bound to immobilized GMP-140 in the presence of GMP-140-derived peptide): peptide 1.5 mM, cells bound with control C-terminal peptide 761-777 normalized to 100%
T1 sequence (P16109 42-830): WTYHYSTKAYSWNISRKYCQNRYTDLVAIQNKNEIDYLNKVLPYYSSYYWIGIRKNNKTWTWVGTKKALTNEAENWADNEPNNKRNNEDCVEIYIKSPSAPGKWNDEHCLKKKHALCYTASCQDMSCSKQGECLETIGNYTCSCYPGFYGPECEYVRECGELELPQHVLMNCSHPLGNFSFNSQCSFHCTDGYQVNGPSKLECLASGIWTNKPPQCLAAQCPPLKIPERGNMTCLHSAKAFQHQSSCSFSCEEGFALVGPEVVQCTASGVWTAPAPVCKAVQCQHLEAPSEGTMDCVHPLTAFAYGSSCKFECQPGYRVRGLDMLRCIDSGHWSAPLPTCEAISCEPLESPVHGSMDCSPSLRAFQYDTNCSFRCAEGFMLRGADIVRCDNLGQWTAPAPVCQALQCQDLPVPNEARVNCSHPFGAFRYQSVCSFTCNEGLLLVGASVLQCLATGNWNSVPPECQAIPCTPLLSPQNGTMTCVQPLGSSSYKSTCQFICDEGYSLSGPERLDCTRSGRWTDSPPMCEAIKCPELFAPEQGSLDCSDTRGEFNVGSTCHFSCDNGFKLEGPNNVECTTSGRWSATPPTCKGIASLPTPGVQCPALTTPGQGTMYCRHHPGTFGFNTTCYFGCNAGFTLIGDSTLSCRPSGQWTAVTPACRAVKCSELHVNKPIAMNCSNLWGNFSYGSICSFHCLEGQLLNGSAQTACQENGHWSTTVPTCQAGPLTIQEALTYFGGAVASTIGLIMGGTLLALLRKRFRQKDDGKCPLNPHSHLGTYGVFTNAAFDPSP
From the text: Peptides were screened for their ability to inhibit neutrophil adhesion to purified GMP-140 immobilized on plastic wells, using the assay described by Geng, et al., Nature 343, 757-760 (1990).
Human neutrophils are isolated from heparinized whole blood by density gradient centrifugation on Mono-Poly resolving media, Flow Laboratories. Neutrophil suspensions are greater than 98% pure and greater than 95% viable by trypan blue exclusion. For adhesion assays, neutrophils are suspended at a concentration of 2×10^6 cells/ml in Hanks' balanced salt solution containing 1.26 mM Ca^2+ and 0.81 mM Mg^2+ (HBSS, Gibco) with 5 mg/ml human serum albumin (HBSS/HSA). Adhesion assays are conducted in triplicate in 96-well microtiter plates, Corning, incubated at 4° C. overnight with 50 microliters of various protein solutions.
GMP-140 is plated at 5 micrograms/ml and the control proteins: human serum albumin (Alb), platelet glycoprotein IIb/IIIa (IIb), von Willebrand factor (vWF), fibrinogen (FIB), thrombomodulin (TM), gelatin (GEL) or human serum (HS), are added at 50 micrograms/ml. All wells are blocked for 2 h at 22° C. with 300 microliters HBSS containing 10 mg/ml HSA, then washed three times with HBSS containing 0.1% Tween-20 and once with HBSS. Cells (2×10^5 per well were added to the wells and incubated at 22° C. for 20 min. The wells were then filled with HBSS/HSA, sealed with acetate tape (Dynatech), and centrifuged inverted at 150 g for 5 min. After discarding nonadherent cells and supernates, the contents of each well are solubilized with 200 microliters 0.5% hexadecyltrimethylammonium bromide, Sigma, in 50 mM potassium phosphate, pH 6.0, and assayed for myeloperoxidase activity, Ley, et al., Blood 73, 1324-1330 (1989). The number of cells bound was derived from a standard curve of myeloperoxidase activity versus numbers of cells. Under all assay conditions, the cells released less than 5% of total myeloperoxidase and lactate dehydrogenase. Results are presented in Table I. 100% adhesion is that seen in the presence of the C-terminal peptide (amino acid residues 761-777 of GMP-140) as a negative control; this value is the same as controls in which neither peptide nor antibody is added to the cells. Inhibition is read as a lower percent adhesion, so that a value of 5% mean that 95% of the specific adhesion was inhibited.
Peptides from the lectin-like domain of GMP-140 were assayed for their ability to inhibit adhesion of neutrophils to immobilized GMP-140 in the assay described in example 1. Concentrations tested ranged from 0.1 mM to 1.5 mM.

GMP-140 [2] = target: T1, GMP-140; experiment: ELISA of binding of biotinylated monoclonal antibodies G1, G2, G3 to immobilized GMP-140 with soluble peptide; set-up: from tissue; host or cells: outdated human platelet packs (platelet lysate); settings: 2 h, peptide 1.5 mM
Protocol: Based on competitive ELISAs with the purified protein, G1, G2, and G3 each recognize distinct or only partially overlapping epitopes. 1.5 mM peptide was added to biotinylated mAb at a concentration of 2.5 micrograms/ml, which were then added to the wells containing GMP-140, as described in example 1. Binding was measured by an ELISA with an avidin detection system.
The monoclonal antibodies were biotinylated as follows: to 0.5 ml of purified IgG antibody (1 mg/ml in PBS, pH 7.4) was added 50 μl of 3.2 mM N-hydroxysuccinimide biotin in dimethyl sulfoxide and 50 μl of 1 M NaHCO3. After a 2 hour incubation at room temperature in the dark, the reaction was stopped with 50 μl of 1 M NH4 Cl. The biotinylated antibody was then separated from other components by gel filtration on a PD-10 column equilibrated in PBS. The ELISA was performed as follows; all steps were performed at room temperature.
Biotinylated antibody (2.5 μg/ml) with or without 1.5 mM peptide was incubated with wells coated with GMP-140 as described in example 1. After a 2 hour incubation, the antibody was removed, the wells were washed, and 0.1 ml of horseradish peroxidase-conjugated stepavidin (Pierce), diluted 1:1000 in HBSS/HSA, was added for 30 min. The wells were then washed and 0.1 ml of peroxidase substrate (Pierce) was added for 15 min. The color reaction was read at 405 nm.

human neutrophils = experiment: Binding of 125I[GMP-140] to human neutrophils
From the text: This receptor is believed to be a glycoprotein containing sialic acid and other oligosaccharides that are recognized by the lectin domain of GMP-140. Using the assay described in example 1, and an assay in which ^125 I[GMP-140] binds specifically, saturably and reversibly to human neutrophils, as described by Moore and McEver, Clin.Res. 38, 364A (1990), certain critical structural features of the ligand (or, perhaps more accurately, "counter-receptor") for GMP-140 on human neutrophils have been defined.

[3] = mAb G1 2.5 micrograms/ml, read-out: % Binding of Biotinylated MAbs G1
[4] = mAb G2 2.5 micrograms/ml, read-out: % Binding of Biotinylated MAbs G2
[5] = mAb G3 2.5 micrograms/ml, read-out: % Binding of Biotinylated MAbs G3

Substance: NRYTDLV [21-27]
% Bound (neutrophils bound to immobilized GMP-140 in the presence of GMP-140-derived peptide) (GMP-140 [1]): 65%

Substance: RKNNKT [54-59]
% Bound (neutrophils bound to immobilized GMP-140 in the presence of GMP-140-derived peptide) (GMP-140 [1]): 86%

Substance: RYTDLVAIQ [22-30]
% Bound (neutrophils bound to immobilized GMP-140 in the presence of GMP-140-derived peptide) (GMP-140 [1]): 6%

Substance: NRYTDLVAI [21-29]
% Bound (neutrophils bound to immobilized GMP-140 in the presence of GMP-140-derived peptide) (GMP-140 [1]): 71%

Substance: neuraminidase: neuraminidase purified from Vibrio cholera [reference compound]
binding of 125I[GMP-140] to human neutrophils (in words) (human neutrophils): abolished
adhesion of neutrophils to immobilized GMP-140 after treatment of neutrophils (in words) (GMP-140 [1]; neutrophils treated with the enzyme): abolished

Substance: NRYTDLVAIQ [21-30]
% Bound (neutrophils bound to immobilized GMP-140 in the presence of GMP-140-derived peptide) (GMP-140 [1]): 20%

Substance: YTDLVAIQNKNE [23-34]
% Bound (neutrophils bound to immobilized GMP-140 in the presence of GMP-140-derived peptide) (GMP-140 [1]): 30%

Substance: RKNNKTW [54-60]
% Bound (neutrophils bound to immobilized GMP-140 in the presence of GMP-140-derived peptide) (GMP-140 [1]): 63%

Substance: RKNNK [54-58]
% Bound (neutrophils bound to immobilized GMP-140 in the presence of GMP-140-derived peptide) (GMP-140 [1]): 108%

Substance: NKTWTWV [57-63]
% Bound (neutrophils bound to immobilized GMP-140 in the presence of GMP-140-derived peptide) (GMP-140 [1]): 69%

The next lines start with results.

adhesion of neutrophils to immobilized GMP-140 abolished (GMP-140 [1]; neutrophils treated with the protease): Greater than 70%
Substance: trypsin [reference compound]

remaining activity at 1500 µM (GMP-140 [2]; [3]): 94%
remaining activity at 1500 µM (GMP-140 [2]; [4]): 92%
remaining activity at 1500 µM (GMP-140 [2]; [5]): 108%
Substance: YPGFYGPECEYVRE [EGF 145-158]

% Bound (neutrophils bound to immobilized GMP-140 in the presence of GMP-140-derived peptide) (GMP-140 [1]): 41%
Substance: AENWADNEPNNKR [73-85]

% Bound (neutrophils bound to immobilized GMP-140 in the presence of GMP-140-derived peptide) (GMP-140 [1]): 68%
Substance: ADNEPNNKRNNED [77-89]

remaining activity at 1500 µM (GMP-140 [2]; [3]): 107%
remaining activity at 1500 µM (GMP-140 [2]; [4]): 96%
remaining activity at 1500 µM (GMP-140 [2]; [5]): 111%
Substance: CSDTRGEFNVGST [REPEATS 544-556, reference compound]

remaining activity at 1500 µM (GMP-140 [2]; [3]): 107%
remaining activity at 1500 µM (GMP-140 [2]; [4]): 92%
remaining activity at 1500 µM (GMP-140 [2]; [5]): 104%
Substance: SKQGE [EGF 128-132]

% Bound (neutrophils bound to immobilized GMP-140 in the presence of GMP-140-derived peptide) (GMP-140 [1]): 104%
Substance: PNNKRNNED [81-89]

remaining activity at 1500 µM (GMP-140 [2]; [3]): 97%
remaining activity at 1500 µM (GMP-140 [2]; [4]): 93%
remaining activity at 1500 µM (GMP-140 [2]; [5]): 96%
Substance: VEIYIKSPSAPGKWNDEH [LECTIN 91-108]

inhibition of neutrophil adhesion to immobilized GMP-140 (in words) (GMP-140 [1]): inhibited adhesion
inhibition of neutrophil adhesion to immobilized GMP-140 (in words) (GMP-140 [1]; listed as 66 to 78): very active
% Bound (neutrophils bound to immobilized GMP-140 in the presence of GMP-140-derived peptide) (GMP-140 [1]): 6%
Substance: 66-78: GMP-140 lectin domain amino acids 66-78, overlapping peptide; by b139 alignment KKALTENAENWAD
inhibition of neutrophil binding to immobilized GMP-140, dependence on concentration (GMP-140 [1]; FIG. 3, 0.1 mM to 1.5 mM peptide): inhibited binding in a dose-dependent manner

% Bound (neutrophils bound to immobilized GMP-140 in the presence of GMP-140-derived peptide) (GMP-140 [1]): 100%
Substance: AENWADNE [73-80]
